From patent US20240109924A1, “IP4-4,6 SUBSTITUTED DERIVATIVE COMPOUNDS” (SANIFIT THERAPEUTICS, S.A., priority 2021, published 2024)
Counter-ions that a name gives are not always drawn.

Assay: In vitro inhibition of calcium phosphate crystallization in human plasma (spectrophotometric assay)
Format: biochemical
Conditions: 0-100 μM, 1.5 mM phosphate, 12.5 mM calcium, pH 7.4, absorbance 550 nm, slope 6-24 min, read-out: Relative Potency
Method: The in vitro efficacy of the IP4-4,6 substituted derivatives (e.g., Compounds 1 to 53) of the invention on the inhibition of calcium phosphate crystallization in human plasma samples was evaluated according to a spectrophotometric assay previously described in the art (Ferrer M, et al., Sci Rep 2017; 7:6858, doi:10.1038/s41598-017-07203-x).
A 96-well plate was employed. Plasma was spiked (1 volume of the IP4-4,6 substituted derivatives of the invention per 19 volumes of plasma) with increasing concentrations of the derivatives in the range of 0-100 μM. Plasma was then centrifuged at 10,000 g at rt and subsequently mixed with a mixture of 5 mM hydrogen phosphate and 41.67 mM calcium to attain final concentrations of 1.5 mM phosphate and 12.5 mM calcium, respectively. All reagent solutions were filtered, and pH adjusted to 7.4.
Crystallization of calcium phosphate was monitored spectrophotometrically for 30 min at rt by measuring the increments in absorbance at 550 nm using the Biotek Powerwave XS Microplate spectrophotometer (BioTek Instruments, Inc., Winooski, VT, US). The plate was incubated at rt in an orbital shaker and absorbance measured every 3 min.
Plasma crystallization was assessed based on slope measurement in the linear range between 6 and 24 min from plots of increase in absorbance versus logarithm of time. The efficacy of different myo-inositol phosphates derivatives in preventing in vitro formation of calcium phosphate crystals was assessed in human plasma samples using the slopes obtained between 6- and 24-min. Inhibition of crystallization was measured by comparing the slopes of the control sample (blank plasma) with those of samples containing the inhibitor as shown below: […]

SMILES	EC50 [µM]
COCc1cn(CCCOC2C(OP(=O)(O)O)C(OCCCn3cc(COC)nn3)C(OP(=O)(O)O)C(OP(=O)(O)O)C2OP(=O)(O)O)nn1 (stereo not shown) [Compound 36, 4,6-O-bis(3-(4-(methoxymethyl)-1H-1,2,3-triazol-1-yl)propyl)-myo-inositol-1,2,3,5-tetrakis(phosphate) octasodium salt]	5 to 10
COCc1cn(CCCCOC2C(OP(=O)(O)O)C(OCCCCn3cc(COC)nn3)C(OP(=O)(O)O)C(OP(=O)(O)O)C2OP(=O)(O)O)nn1 (stereo not shown) [Compound 37, 4,6-O-bis(4-(4-(methoxymethyl)-1H-1,2,3-triazol-1-yl)butyl)-myo-inositol-1,2,3,5-tetrakis(phosphate) octasodium salt]	5 to 10
COCc1cn(CCCCCOC2C(OP(=O)(O)O)C(OCCCCCn3cc(COC)nn3)C(OP(=O)(O)O)C(OP(=O)(O)O)C2OP(=O)(O)O)nn1 (stereo not shown) [Compound 38, 4,6-O-bis(5-(4-(methoxymethyl)-1H-1,2,3-triazol-1-yl)pentyl)-myo-inositol-1,2,3,5-tetrakis(phosphate) octasodium salt]	≤ 5
O=C(O)c1cn(CCCCCCOC2C(OP(=O)(O)O)C(OCCCCCCn3cc(C(=O)O)nn3)C(OP(=O)(O)O)C(OP(=O)(O)O)C2OP(=O)(O)O)nn1 (stereo not shown) [Compound 40, 4,6-O-(6-(4-carboxy-1H-1,2,3-triazol-1-yl)hexyl)-myo-inositol-1,2,3,5-tetrakis(phosphate) decasodium salt]	≤ 5
COCc1cn(CCCCCCOC2C(OP(=O)(O)O)C(OCCCCCCn3cc(C(=O)O)nn3)C(OP(=O)(O)O)C(OP(=O)(O)O)C2OP(=O)(O)O)nn1 (stereo not shown) [Compound 41, 4-O-(6-(4-carboxy-1H-1,2,3-triazol-1-yl)hexyl)-6-O-(6-(4-(methoxymethyl)-1H-1,2,3-triazol-1-yl)hexyl)-myo-inositol-1,2,3,5-tetrakis(phosphate) nonasodium salt]	≤ 5
COc1ccc(CCCOC2C(OP(=O)(O)O)C(OCCCc3ccc(OC)cc3)C(OP(=O)(O)O)C(OP(=O)(O)O)C2OP(=O)(O)O)cc1 (stereo not shown) [Compound 43, 4,6-O-bis(3-(4-methoxyphenyl)propyl)-myo-inositol-1,2,3,5-tetrakis(phosphate) octasodium salt]	5 to 10
O=P(O)(O)OC1C(OCCCc2cccc(C(F)(F)F)c2)C(OP(=O)(O)O)C(OP(=O)(O)O)C(OP(=O)(O)O)C1OCCCc1cccc(C(F)(F)F)c1 (stereo not shown) [Compound 44, 4,6-O-bis(3-(3-(trifluoromethyl)phenyl)propyl)-myo-inositol-1,2,3,5-tetrakis(phosphate) octasodium salt]	> 10
O=C(O)CCCC(=O)NCCCOC1C(OP(=O)(O)O)C(OCCCNC(=O)CCCC(=O)O)C(OP(=O)(O)O)C(OP(=O)(O)O)C1OP(=O)(O)O (stereo not shown) [Compound 45, 4,6-O-bis((3-(4-carboxybutanamido)propyl))-myo-inositol-1,2,3,5-tetrakis(phosphate) decasodium salt]	≤ 5
O=C(NCCCOC1C(OP(=O)(O)O)C(OCCCNC(=O)Nc2ccccc2)C(OP(=O)(O)O)C(OP(=O)(O)O)C1OP(=O)(O)O)Nc1ccccc1 (stereo not shown) [Compound 46, 4,6-O-bis(3-(3-phenylureido)propyl)-myo-inositol-1,2,3,5-tetrakis(phosphate) octasodium salt]	5 to 10
O=C(NCCCOC1C(OP(=O)(O)O)C(OCCCNC(=O)NC2CCCC2)C(OP(=O)(O)O)C(OP(=O)(O)O)C1OP(=O)(O)O)NC1CCCC1 (stereo not shown) [Compound 47, 4,6-O-bis(3-(3-cyclopentylureido)propyl)-myo-inositol-1,2,3,5-tetrakis(phosphate) octasodium salt]	≤ 5
O=C(NCCCCCOC1C(OP(=O)(O)O)C(OCCCCCNC(=O)c2ccccc2)C(OP(=O)(O)O)C(OP(=O)(O)O)C1OP(=O)(O)O)c1ccccc1 (stereo not shown) [Compound 48, 4,6-O-bis(5-benzamidopentyl)-myo-inositol-1,2,3,5-tetrakis(phosphate) octasodium salt]	> 10
O=C(NCCCCCOC1C(OP(=O)(O)O)C(OCCCCCNC(=O)c2cccs2)C(OP(=O)(O)O)C(OP(=O)(O)O)C1OP(=O)(O)O)c1cccs1 (stereo not shown) [Compound 49, 4,6-O-bis(5-(thiophene-2-carboxamido)pentyl)-myo-inositol-1,2,3,5-tetrakis(phosphate) octasodium salt]	5 to 10
CCCCCOC1C(OP(O)(O)=S)C(OCCCCC)C(OP(O)(O)=S)C(OP(O)(O)=S)C1OP(O)(O)=S (stereo not shown) [Compound 50, 4,6-O-dipentyl-myo-inositol-1,2,3,5-tetrakis(thiophosphate) octasodium salt]	> 10
COCCCCCOC1C(OP(O)(O)=S)C(OCCCCCOC)C(OP(O)(O)=S)C(OP(O)(O)=S)C1OP(O)(O)=S (stereo not shown) [Compound 51, 4,6-O-bis(5-Methoxypentyl)-myo-inositol-1,2,3,5-tetrakis(thiophosphate) octasodium salt]	> 10
O=C(O)CCCOC1C(OP(=O)(O)O)C(OCCCC(=O)O)C(OP(=O)(O)O)C(OP(=O)(O)O)C1OP(=O)(O)O (stereo not shown) [Compound 52, 4,6-O-bis(3-carboxypropyl)-myo-inositol-1,2,3,5-tetrakis(phosphate) decasodium salt]	≤ 5
C#CCOC1C(OP(=O)(O)O)C(OCC#C)C(OP(=O)(O)O)C(OP(=O)(O)O)C1OP(=O)(O)O (stereo not shown) [Compound 53, 4,6-O-Dipropargyl-myo-inositol-1,2,3,5-tetrakis(phosphate) octasodium salt]	≤ 5
